In paper doi:10.1101/454710v1 (biorxiv, 2018):

Tests used:
Experiment in all cases: whole-cell patch clamp
Type in all cases: cell-based
Settings in all cases: agonist; pH 7.4
homomeric α2 GlyR = test system: homomeric α2 GlyR
heteromeric α3β GlyR = test system: heteromeric α3β GlyR
heteromeric α2β GlyR = test system: heteromeric α2β GlyR
homomeric α3 GlyR = test system: homomeric α3 GlyR

EC50 (homomeric α2 GlyR): 99 µM | EC50 (heteromeric α3β GlyR): 395 µM | EC50 (heteromeric α2β GlyR): 91 µM | EC50 (homomeric α3 GlyR): 166 µM
Structure (SMILES): NCC(=O)O [glycine]
